Laboratory results taken from ChEMBL document CHEMBL1126236, “Synthesis and muscarinic receptor activity of ester derivatives of 2-substituted 2-azabicyclo[2.2.1]heptan-5-ol and -6-ol” (J Med Chem, 1992).

Legend:
[1] = biological target: Muscarinic acetylcholine receptor; test: Inhibition of [3H]QNB binding to muscarinic receptor of rat brain membrane preparation.
[2] = biological target: Muscarinic acetylcholine receptor; test: Inhibition of [3H]- Oxo-M binding to muscarinic receptor of rat brain membrane preparations
[3] = biological target: T1, Muscarinic acetylcholine receptor M1 (Rattus norvegicus, UniProt P08482); test: Inhibition of [3H]QNB binding to Muscarinic acetylcholine receptor M1 transfected with CHO cell; format: cell-based
T1 sequence (P08482 whole entry): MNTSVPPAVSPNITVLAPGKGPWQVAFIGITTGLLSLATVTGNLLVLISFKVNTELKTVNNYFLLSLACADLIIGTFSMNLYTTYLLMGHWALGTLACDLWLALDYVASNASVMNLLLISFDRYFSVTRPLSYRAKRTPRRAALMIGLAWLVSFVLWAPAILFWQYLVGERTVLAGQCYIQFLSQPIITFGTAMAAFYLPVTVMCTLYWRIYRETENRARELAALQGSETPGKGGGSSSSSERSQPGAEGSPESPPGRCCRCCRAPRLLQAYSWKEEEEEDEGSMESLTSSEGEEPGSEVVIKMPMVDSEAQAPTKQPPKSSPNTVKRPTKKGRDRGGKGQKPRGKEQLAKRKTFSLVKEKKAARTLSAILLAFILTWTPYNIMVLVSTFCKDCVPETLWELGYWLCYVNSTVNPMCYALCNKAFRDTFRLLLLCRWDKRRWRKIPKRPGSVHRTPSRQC

[4] = biological target: Muscarinic acetylcholine receptor; test: Inhibition of [3H]QNB binding to muscarinic receptor of rat heart membrane preparation.
[5] = biological target: T2, Muscarinic acetylcholine receptor M3 (Rattus norvegicus, UniProt P08483); test: Inhibition of [3H]QNB binding to Muscarinic acetylcholine receptor M3 transfected with CHO cell; format: cell-based
[6] = biological target: T2, Muscarinic acetylcholine receptor M3; test: Inhibition of [3H]QNB binding to m3 receptor transfected with CHO cell; format: cell-based

T2 sequence (P08483 whole entry): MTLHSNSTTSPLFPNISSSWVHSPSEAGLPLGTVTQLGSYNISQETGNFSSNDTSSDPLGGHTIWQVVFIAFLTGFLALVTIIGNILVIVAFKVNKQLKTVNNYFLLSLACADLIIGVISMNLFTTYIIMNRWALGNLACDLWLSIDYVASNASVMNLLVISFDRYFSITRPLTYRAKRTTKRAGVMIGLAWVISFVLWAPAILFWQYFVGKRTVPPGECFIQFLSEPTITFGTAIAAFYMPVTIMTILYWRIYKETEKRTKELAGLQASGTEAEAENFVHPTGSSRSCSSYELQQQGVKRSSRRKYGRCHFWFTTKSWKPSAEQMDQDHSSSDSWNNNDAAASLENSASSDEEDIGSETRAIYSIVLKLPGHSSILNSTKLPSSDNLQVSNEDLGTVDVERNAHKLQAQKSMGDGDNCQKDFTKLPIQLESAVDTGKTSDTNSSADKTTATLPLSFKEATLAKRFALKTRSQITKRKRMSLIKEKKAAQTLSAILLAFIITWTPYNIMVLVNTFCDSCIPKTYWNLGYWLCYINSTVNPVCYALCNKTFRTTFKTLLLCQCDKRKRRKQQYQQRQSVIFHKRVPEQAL

Question: Which results are given for `CC(=O)O[C@@H]1CC2CC1CN2C` (stereo partly specified)?
Answer: Ki [1]: 11.5 µM; Ki [2]: 1.43 µM; Ki [3]: 21.9 µM; Ki [4]: 17.4 µM; Ki [5]: 27.7 µM

Question: For `CC(=O)O[C@H]1CC2CC1N(Cc1ccccc1)C2` (stereo partly specified), which Ki [1] is on record?
Answer: Its Ki is 6.63 µM.

Question: And the Ki [2]?
Answer: The Ki was 7.21 µM.

Question: What about the Ki [3] of the same compound?
Answer: The Ki was 7.01 µM.

Question: What about the Ki [4] of the same compound?
Answer: The Ki was 15.1 µM.

Question: And the Ki [6]?
Answer: The Ki was 18.8 µM.

Question: What does the source list for `CN1CC2CC1C[C@H]2OC(=O)C(C)(c1ccccc1)c1ccccc1` (stereo partly specified)?
Answer: Ki [3]: 0.000423 µM; Ki [4]: 0.00118 µM; Ki [5]: 0.000522 µM

Question: Which Ki [1] does the source give for `CC(=O)O[C@H]1CC2CC1CN2C` (stereo partly specified) here?
Answer: The Ki was 9.84 µM.

Question: What about the Ki [2] of the same compound?
Answer: The Ki was 0.23 µM.

Question: And the Ki [3]?
Answer: Its Ki is 17.5 µM.

Question: And the Ki [4]?
Answer: Its Ki is 10.1 µM.

Question: What about the Ki [5] of the same compound?
Answer: The Ki was 12 µM.

Question: What does the source list for `CC(=O)O[C@@H]1CC2CC1N(Cc1ccccc1)C2` (stereo partly specified)?
Answer: Ki [1]: 20 µM; Ki [2]: 2.57 µM; Ki [3]: 2.26 µM; Ki [4]: 15.3 µM; Ki [5]: 47.6 µM

Question: Which results are given for `CN1CC2CC1C[C@@H]2OC(=O)C(C)(c1ccccc1)c1ccccc1` (stereo partly specified)?
Answer: Ki [3]: 0.000876 µM; Ki [4]: 0.00407 µM; Ki [5]: 0.000533 µM

Question: With `CC(=O)OC1CC2CC1N(C)C2` (stereo unspecified) as the compound, how does the Ki [1] read?
Answer: Its Ki is 17.5 µM.

Question: What about the Ki [2] of the same compound?
Answer: The Ki was 5.37 µM.

Question: And the Ki [3]?
Answer: The Ki was 21.6 µM.

Question: What about the Ki [4] of the same compound?
Answer: The Ki was 24.9 µM.

Question: What about the Ki [5] of the same compound?
Answer: The Ki was 28 µM.

Question: With `CC(=O)OC1CC2CC1CN2Cc1ccccc1` (stereo unspecified) as the compound, how does the Ki [1] read?
Answer: The Ki was 14.8 µM.

Question: What about the Ki [2] of the same compound?
Answer: Its Ki is 1.56 µM.

Question: What about the Ki [3] of the same compound?
Answer: Its Ki is 18.9 µM.

Question: And the Ki [4]?
Answer: Its Ki is 10.3 µM.

Question: What about the Ki [5] of the same compound?
Answer: The Ki was 26.9 µM.
